This is an account of results in publication PMC8949525, “Essential Elements and Isoflavonoids in the Prevention of Prostate Cancer” (Nutrients, 2022).

Structures are written as SMILES. Read-outs that look alike come from different tables or passages of the source.

Data set [1] deals with S. typhimurium TA1535/pSK1002. The following applies: for decrease in 2AA genotoxicity: range over 2AA 5 mg/L and 1 mg/L. The method, then:
(§1) The umu-test detects the induction of bacterial DNA-damage response, the SOS system, in the strain S. typhimurium TA1535/pSK1002. The test strain carries pSK1002 plasmid, which contains the fusion of umuC, encoding one of SOS response proteins, and lacZ genes. The expression of β-galactosidase protein is fully controlled by umuC gene.
(§2) In the present study, the umu-test was performed in the micro-plate format according to the ISO guideline. The β-galactosidase activity was determined by the degree of ONPG cleavage measured as sample absorbance at 420 nm. The extent of SOS system activation was presented as induction ratio (IR), calculated as the ratio of β-galactosidase activity in the presence of the tested compound(s) to that of negative control. […] The optical density at 600 nm was used to describe the bacteria growth. […] Both measurements were performed with Asys UVM340 Hightech microplate spectrophotometer.
The S9 fraction from rat liver was used for metabolic activation of the tested compounds and the model mutagen. […] The P450 cytochrome level in the isolate was evaluated and the aliquots were stored at −80 °C. The S9 reaction mix was prepared as described by Maron and Ames.
(§3) In order to the establish anti-genotoxic potential of tested compounds, their effects on the action of two model genotoxic agents, 4NQO without the metabolic activation with rat liver S9 fraction and 2AA with metabolic activation, were evaluated. […] Subsequently, the modulation of 4NQO and 2AA genotoxicity by the isoflavones, the elements and their mixtures in previously used concentrations was investigated.

The test system of data set [2] is LNCaP prostate cancer cells. The data set is described as follows: LNCaP cell proliferation (bisbenzimide H 33258-DNA fluorescence). The data set is classed as cell-based, human. The following applies: isoflavone 10 μM, Zn 0.5, Se 0.03, Cu 0.5, Fe 1.5, Ca 40 μg/mL. On the procedure: LNCaP cells (passage 12–18) were maintained in DMEM medium supplemented with 10% (v/v) FBS, sodium pyruvate (1 mM), penicillin (100 U/mL) and streptomycin (100 μg/mL) at 37 °C in 5% CO2 humidified atmosphere.
The final concentration of DMSO was 0.05%. It must be noted that DMEM contains 1.8 mM of calcium. […] The cells were then gently washed with 0.9% saline and lysed by brief sonication in deionised water. The cell proliferation was quantified by measurement of bisbenzimide H 33,258–DNA complexes fluorescence on Synergy 4 microplate reader with Gen5 software (BioTek Instruments Inc., 100 Tigan St, Winooski, VT 05404, USA).

Data set [3] deals with S. typhimurium TA1535/pSK1002. Particulars: for G (growth ratio): −S9, NQO line = genotoxin alone; for anti-genotoxic activity against 4NQO (summary class): cells cover 4NQO […] and 0.05 mg/L, the single + corresponds to […] (Table 2). On the procedure: as §1, §2, §3
The subject of another data set is LNCaP cells. Description: LNCaP viability/apoptosis, Hoechst 33258 fluorescent imaging. The data set is classed as cell-based, human. Particulars: 48 h, Hoechst 33258 stain; genistein, Se, Fe; camptothecin 2 µM positive control. The method, then:
The images were recorded with the DS-Fi1 camera connected with Eclipse TS100F inverted microscope with Epi-Fluorescent attachment (DAPI filter) and NIS-Elements BR 2.3 software.

The mark [4] stands for this setting: 2AA 1 mg/L, +S9, daidzein or equol 10 μM with or without mineral (Table 6), 2AA line = genotoxin alone.
Setting [5] is: 2AA 1 mg/L, +S9, genistein 10 μM and/or mineral added (Table 5), 2AA line = genotoxin alone.
The mark [6] stands for this setting: 2AA 5 mg/L, +S9, daidzein or equol 10 μM with or without mineral (Table 6), 2AA line = genotoxin alone.
The mark [7] stands for this setting: 2AA 5 mg/L, +S9, genistein 10 μM and/or mineral added (Table 5), 2AA line = genotoxin alone.
Where [8] appears, read: 4NQO 0.05 mg/L, genistein 10 μM and/or mineral added (Table 2).
The mark [9] stands for this setting: 4NQO […], genistein 10 μM and/or mineral added (Table 2).
Where [10] appears, read: −S9, isoflavone 10 μM, minerals Zn 0.5, Se 0.03, Cu 0.5, Fe 1.5, Ca 40 μg/mL.
Where [11] appears, read: 2AA 1 mg/L, +S9 (second symbol of the cell).
[12] abbreviates: 2AA 5 mg/L, +S9 (first symbol of the cell).
Where [13] appears, read: inhibition of IR induced by 2AA 1 mg/L, +S9 (Table 5).
Setting [14] is: inhibition of IR induced by 2AA 5 mg/L, +S9 (Table 5).

Turning to `Nc1ccc2cc3ccccc3cc2c1` [2AA, 2-aminoanthracene, reference compound], the “G (growth ratio)” value in data set [1] (setting [4]) is 0.92 ± 0.10; in data set [1] (setting [5]), 1.00 ± 0.07; in data set [1] (setting [6]), 0.86 ± 0.09; in data set [1] (setting [7]), 1.02 ± 0.08. Also, the “IR (induction ratio)” value in data set [1] (setting [4]) is on record as 2.37 ± 0.48; in data set [1] (setting [5]), 2.00 ± 0.53; in data set [1] (setting [6]) it was 2.91 ± 0.54; in data set [1] (setting [7]) it was 2.17 ± 0.39.

Regarding `[Ca+2].[Cl-].[Cl-]` [Ca, calcium chloride], the “LNCaP proliferation, % of control” value in data set [2] (48 h incubation) worked out at 80 ± 9%. Besides, the “G (growth ratio)” value in data set [3] (setting [8]) worked out at 1.13 ± 0.08; in data set [3] (setting [9]), 1.11 ± 0.05; in data set [1] (setting [7]), 1.19 ± 0.13; in data set [1] (setting [10]) it was 1.11 ± 0.09. The “anti-genotoxic activity against 4NQO (summary class)” value (“anti-genotoxic activity against 4NQO” below) in data set [3] was “+ (anti-genotoxicty of used compound(s) ≤ 20%)”.

With `O=S(=O)([O-])[O-].[Cu+2]` [Cu, copper(II)/cupric sulphate], in data set [2] (48 h incubation), the “LNCaP proliferation, % of control” value was 80 ± 14%. Besides, the “G (growth ratio)” value in data set [3] (setting [8]) came to 0.98 ± 0.10; in data set [3] (setting [9]), 1.00 ± 0.12; in data set [1] (setting [5]), 1.11 ± 0.12. The “anti-genotoxic activity against 2AA (summary class)” value (“anti-genotoxic activity against 2AA” below) in data set [1] (setting [11]) and in data set [1] (setting [12]) was “++ ++ (anti-genotoxicty of used compound(s) 21–40%)” throughout. For the same compound, the “%Anti-Genotox.” value is listed as 33% in data set [1] (setting [13]) and 26% in data set [1] (setting [14]). Further, in data set [1] (+S9), the “decrease in 2AA genotoxicity” value is given as 26–33%.

As for `O=S(=O)([O-])[O-].[Fe+2]` [Fe, iron(II) sulphate], the “apoptosis / morphology of LNCaP cells” value in the data set with LNCaP cells was “did not induce apoptosis”. For the same compound, the “G (growth ratio)” value in data set [3] (setting [8]) is listed as 1.10 ± 0.10; in data set [1] (setting [5]) it was 1.10 ± 0.06; in data set [1] (+S9, isoflavone 10 μM, minerals Zn 0.5, Se 0.03, Cu 0.5, Fe 1.5, Ca 40 μg/mL) it was 0.98 ± 0.10. In data set [3], the “anti-genotoxic activity against 4NQO” value is “+ (anti-genotoxicty of used compound(s) ≤ 20%)”. Also, the “anti-genotoxic activity against 2AA” value was “++ (anti-genotoxicty of used compound(s) 21–40%)” in data set [1] (setting [11]) and “+ (anti-genotoxicty of used compound(s) ≤ 20%)” in data set [1] (setting [12]). In addition, the “%Anti-Genotox.” value in data set [1] (setting [13]) was 21%; in data set [1] (setting [14]), 14%. Moreover, in data set [1] (+S9), the “decrease in 2AA genotoxicity” value is reported as 14–21%.

Turning to `O=[Se](=O)([O-])[O-].[Na+].[Na+]` [Se, sodium selenate], in data set [2] (48 h incubation), the “LNCaP proliferation, % of control” value stood at 84 ± 11%. Also, in the data set on LNCaP cells, the “apoptosis / morphology of LNCaP cells” value is given as “did not induce apoptosis”. Moreover, the “G (growth ratio)” value worked out at 1.10 ± 0.09 in data set [3] (setting [8]); 1.11 ± 0.05 in data set [3] (setting [9]); 1.18 ± 0.10 in data set [1] (setting [5]); 1.17 ± 0.12 in data set [1] (setting [7]); 1.14 ± 0.11 in data set [1] (setting [10]).

With `O=S(=O)([O-])[O-].[Zn+2]` [Zn, Zinc sulphate], the “LNCaP proliferation, % of control” value in data set [2] (48 h incubation) came to 82 ± 10%.

As to `CC[C@@]1(O)C(=O)OCc2c1cc1n(c2=O)Cc2cc3ccccc3nc2-1` [camptothecin, reference compound], the “apoptosis / morphology of LNCaP cells” value in the data set on LNCaP cells was “condensed chromatin or apoptotic nuclei”.

Turning to `O=c1c(-c2ccc(O)cc2)coc2cc(O)ccc12` [dai, daidzein], the figures for the “LNCaP proliferation, % of control” value in data set [2] (24 h incubation) and in data set [2] (48 h incubation) were 84 ± 10% and 70 ± 7%, respectively.

As to `Oc1ccc([C@H]2COc3cc(O)ccc3C2)cc1` [eq, equol], the “LNCaP proliferation, % of control” value in data set [2] (24 h incubation) worked out at 81 ± 9%; in data set [2] (48 h incubation) it was 60 ± 9%. Further, the “G (growth ratio)” value is reported as 0.97 ± 0.26 in data set [3] (4NQO […], daidzein or equol 10 μM with or without mineral (Table 3)); 0.99 ± 0.11 in data set [1] (setting [4]); 1.18 ± 0.33 in data set [1] (setting [10]). In addition, the “anti-genotoxic activity against 2AA” value in data set [1] (setting [11]) is “+ (anti-genotoxicty of used compound(s) ≤ 20%)”; in data set [1] (setting [12]), “++ (anti-genotoxicty of used compound(s) 21–40%)”. Also, the “%Anti-Genotox.” value in data set [1] (inhibition of IR induced by 2AA 1 mg/L, +S9 (Table 6)) turned out to be 34%; in data set [1] (inhibition of IR induced by 2AA 5 mg/L, +S9 (Table 6)), 29%. For the same compound, the “decrease in 2AA genotoxicity” value in data set [1] (+S9) is given as 29–34%.

For the compound `O=c1c(-c2ccc(O)cc2)coc2cc(O)cc(O)c12` [gen, genistein], the “LNCaP proliferation, % of control” value was found to be 72 ± 9% in data set [2] (24 h incubation) and 55 ± 9% in data set [2] (48 h incubation). Also, in the data set with LNCaP cells, the “apoptosis / morphology of LNCaP cells” value is “did not induce apoptosis”. The “G (growth ratio)” value in data set [3] (setting [9]) is 1.12 ± 0.24; in data set [1] (setting [7]), 1.21 ± 0.17; in data set [1] (setting [10]) it was 1.28 ± 0.35. In addition, the “anti-genotoxic activity against 4NQO” value in data set [3] was “+ (anti-genotoxicty of used compound(s) ≤ 20%)”. The “anti-genotoxic activity against 2AA” value is recorded as “++ (anti-genotoxicty of used compound(s) 21–40%)” in data set [1] (setting [11]) and “+ (anti-genotoxicty of used compound(s) ≤ 20%)” in data set [1] (setting [12]). Moreover, the figures for the “%Anti-Genotox.” value in data set [1] (setting [13]) and in data set [1] (setting [14]) were 32% and 17%, respectively. The “decrease in 2AA genotoxicity” value in data set [1] (+S9) was 17–32%.
